Experimental data taken from PMC9571063 (Molecules, 2022).

Assays:
Experiment in all cases: KINOMEscan
Format in all cases: binding
Settings in all cases: read-out: Percent Control
PRKG1 = biological target: T1, PRKG1 (Homo sapiens, UniProt Q13976)
T1 construct: purchased Eurofins DiscoverX KINOMEscan (scanMAX 468)

PLK1 = biological target: T2, PLK1 (Homo sapiens, UniProt P53350)
T2 construct: purchased Eurofins DiscoverX KINOMEscan (scanMAX 468)

CSNK2A1 = biological target: T3, CSNK2A1 (Homo sapiens, UniProt P68400)
T3 construct: purchased Eurofins DiscoverX KINOMEscan (scanMAX 468)
T3 sequence (P68400 whole entry): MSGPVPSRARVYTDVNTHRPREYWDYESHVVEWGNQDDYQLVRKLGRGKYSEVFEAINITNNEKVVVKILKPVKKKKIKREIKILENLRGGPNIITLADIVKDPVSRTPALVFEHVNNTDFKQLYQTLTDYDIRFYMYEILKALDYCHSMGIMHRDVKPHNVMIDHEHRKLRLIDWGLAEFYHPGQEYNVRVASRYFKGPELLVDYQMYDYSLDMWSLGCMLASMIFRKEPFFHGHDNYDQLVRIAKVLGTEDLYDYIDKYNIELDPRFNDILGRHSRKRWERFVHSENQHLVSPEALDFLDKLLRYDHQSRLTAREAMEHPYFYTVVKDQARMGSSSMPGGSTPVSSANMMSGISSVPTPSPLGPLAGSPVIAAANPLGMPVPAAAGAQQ

CSNK1A1L = biological target: T4, CSNK1A1L (Homo sapiens, UniProt Q8N752)
T4 construct: purchased Eurofins DiscoverX KINOMEscan (scanMAX 468)

CDK7 = biological target: T5, CDK7 (Homo sapiens, UniProt P50613)
T5 construct: purchased Eurofins DiscoverX KINOMEscan (scanMAX 468)

CDK8 = biological target: T6, CDK8 (Homo sapiens, UniProt P49336)
T6 construct: purchased Eurofins DiscoverX KINOMEscan (scanMAX 468)

EIF2AK1 = biological target: T7, EIF2AK1 (Homo sapiens, UniProt Q9BQI3)
T7 construct: purchased Eurofins DiscoverX KINOMEscan (scanMAX 468)

ALK(C1156Y) = biological target: T8, ALK(C1156Y) (Homo sapiens, UniProt Q9UM73, C1156Y)
T8 construct: purchased Eurofins DiscoverX KINOMEscan (scanMAX 468)

NEK6 = biological target: T9, NEK6 (Homo sapiens, UniProt Q9HC98)
T9 construct: purchased Eurofins DiscoverX KINOMEscan (scanMAX 468)

KIT(V559D,T670I) = biological target: T10, KIT(V559D,T670I) (Homo sapiens, UniProt P10721, T670I/V559D)
T10 construct: purchased Eurofins DiscoverX KINOMEscan (scanMAX 468)

FLT4 = biological target: T11, FLT4 (Homo sapiens, UniProt P35916)
T11 construct: purchased Eurofins DiscoverX KINOMEscan (scanMAX 468)

EPHA3 = biological target: T12, EPHA3 (Homo sapiens, UniProt P29320)
T12 construct: purchased Eurofins DiscoverX KINOMEscan (scanMAX 468)

TNK2 = biological target: T13, TNK2 (Homo sapiens, UniProt Q07912)
T13 construct: purchased Eurofins DiscoverX KINOMEscan (scanMAX 468)

LZK = biological target: T14, LZK (Homo sapiens, UniProt O43283)
T14 construct: purchased Eurofins DiscoverX KINOMEscan (scanMAX 468)

BMX = biological target: T15, BMX (Homo sapiens, UniProt P51813)
T15 construct: purchased Eurofins DiscoverX KINOMEscan (scanMAX 468)

CDKL1 = biological target: T16, CDKL1 (Homo sapiens, UniProt Q00532)
T16 construct: purchased Eurofins DiscoverX KINOMEscan (scanMAX 468)

MAP3K2 = biological target: T17, MAP3K2 (Homo sapiens, UniProt Q9Y2U5)
T17 construct: purchased Eurofins DiscoverX KINOMEscan (scanMAX 468)

ERBB2 = biological target: T18, ERBB2 (Homo sapiens, UniProt P04626)
T18 construct: purchased Eurofins DiscoverX KINOMEscan (scanMAX 468)

NEK9 = biological target: T19, NEK9 (Homo sapiens, UniProt Q8TD19)
T19 construct: purchased Eurofins DiscoverX KINOMEscan (scanMAX 468)
T19 sequence (Q8TD19 whole entry): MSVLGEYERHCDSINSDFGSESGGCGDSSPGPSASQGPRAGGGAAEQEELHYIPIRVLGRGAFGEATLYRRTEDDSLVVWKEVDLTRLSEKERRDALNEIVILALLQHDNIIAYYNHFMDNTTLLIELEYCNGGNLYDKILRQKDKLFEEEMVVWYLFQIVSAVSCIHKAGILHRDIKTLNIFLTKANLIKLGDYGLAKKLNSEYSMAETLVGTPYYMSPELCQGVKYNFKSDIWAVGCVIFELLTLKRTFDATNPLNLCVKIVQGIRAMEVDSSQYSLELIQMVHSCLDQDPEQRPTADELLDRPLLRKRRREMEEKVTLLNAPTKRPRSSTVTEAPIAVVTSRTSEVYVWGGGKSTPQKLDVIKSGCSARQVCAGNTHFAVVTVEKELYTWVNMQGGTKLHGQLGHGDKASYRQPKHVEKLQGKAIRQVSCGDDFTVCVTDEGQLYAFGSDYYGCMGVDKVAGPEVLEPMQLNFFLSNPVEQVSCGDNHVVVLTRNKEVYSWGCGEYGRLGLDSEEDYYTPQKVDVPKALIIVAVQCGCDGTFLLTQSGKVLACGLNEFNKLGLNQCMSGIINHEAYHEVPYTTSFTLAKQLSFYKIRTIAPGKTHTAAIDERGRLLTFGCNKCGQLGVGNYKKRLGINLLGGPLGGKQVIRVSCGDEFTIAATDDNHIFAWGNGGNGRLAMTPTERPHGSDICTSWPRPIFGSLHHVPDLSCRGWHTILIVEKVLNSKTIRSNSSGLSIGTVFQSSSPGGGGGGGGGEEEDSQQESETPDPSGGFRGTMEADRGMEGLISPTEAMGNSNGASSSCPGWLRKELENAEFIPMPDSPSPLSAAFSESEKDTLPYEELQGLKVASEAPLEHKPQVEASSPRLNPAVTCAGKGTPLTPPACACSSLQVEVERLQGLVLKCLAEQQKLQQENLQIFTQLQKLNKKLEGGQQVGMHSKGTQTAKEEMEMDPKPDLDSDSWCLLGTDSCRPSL

ALK = biological target: T20, ALK (Homo sapiens, UniProt Q9UM73)
T20 construct: purchased Eurofins DiscoverX KINOMEscan (scanMAX 468)

ARK5 = biological target: T21, ARK5 (Homo sapiens, UniProt O60285)
T21 construct: purchased Eurofins DiscoverX KINOMEscan (scanMAX 468)

PIK3CG = biological target: T22, PIK3CG (Homo sapiens, UniProt P48736)
T22 construct: purchased Eurofins DiscoverX KINOMEscan (scanMAX 468)
T22 sequence (P48736 whole entry): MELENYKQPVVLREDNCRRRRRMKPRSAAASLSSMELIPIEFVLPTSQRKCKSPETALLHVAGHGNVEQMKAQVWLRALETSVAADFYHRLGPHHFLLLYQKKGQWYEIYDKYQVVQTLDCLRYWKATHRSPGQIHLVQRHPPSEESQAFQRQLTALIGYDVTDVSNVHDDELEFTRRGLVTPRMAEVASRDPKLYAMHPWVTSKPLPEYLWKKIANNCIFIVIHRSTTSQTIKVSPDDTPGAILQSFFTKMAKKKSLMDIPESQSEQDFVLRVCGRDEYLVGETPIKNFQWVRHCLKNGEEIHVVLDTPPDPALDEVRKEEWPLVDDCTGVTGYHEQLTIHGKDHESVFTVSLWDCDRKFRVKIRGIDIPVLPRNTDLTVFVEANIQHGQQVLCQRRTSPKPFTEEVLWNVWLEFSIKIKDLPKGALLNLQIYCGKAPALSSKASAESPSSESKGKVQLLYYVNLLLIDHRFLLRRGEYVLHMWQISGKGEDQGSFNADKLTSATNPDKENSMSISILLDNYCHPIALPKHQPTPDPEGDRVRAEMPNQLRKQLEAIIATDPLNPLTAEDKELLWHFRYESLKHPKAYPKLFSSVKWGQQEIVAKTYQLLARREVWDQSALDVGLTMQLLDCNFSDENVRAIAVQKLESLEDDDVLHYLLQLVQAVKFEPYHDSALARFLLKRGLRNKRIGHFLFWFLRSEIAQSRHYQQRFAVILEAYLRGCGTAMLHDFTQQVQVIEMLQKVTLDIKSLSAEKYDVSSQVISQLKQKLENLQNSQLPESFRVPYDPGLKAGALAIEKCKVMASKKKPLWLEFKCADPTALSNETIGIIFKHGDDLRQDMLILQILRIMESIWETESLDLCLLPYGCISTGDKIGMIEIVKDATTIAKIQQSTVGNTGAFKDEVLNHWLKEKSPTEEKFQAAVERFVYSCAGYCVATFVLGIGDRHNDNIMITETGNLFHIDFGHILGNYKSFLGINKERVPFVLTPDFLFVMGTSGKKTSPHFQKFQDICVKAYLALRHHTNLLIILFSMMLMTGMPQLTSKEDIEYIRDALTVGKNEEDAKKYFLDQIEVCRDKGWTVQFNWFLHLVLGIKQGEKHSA

TRKA = biological target: T23, TRKA (Homo sapiens, UniProt P04629)
T23 construct: purchased Eurofins DiscoverX KINOMEscan (scanMAX 468)

MAP4K2 = biological target: T24, MAP4K2 (Homo sapiens, UniProt Q12851)
T24 construct: purchased Eurofins DiscoverX KINOMEscan (scanMAX 468)

DAPK1 = biological target: T25, DAPK1 (Homo sapiens, UniProt P53355)
T25 construct: purchased Eurofins DiscoverX KINOMEscan (scanMAX 468)

PDGFRB = biological target: T26, PDGFRB (Homo sapiens, UniProt P09619)
T26 construct: purchased Eurofins DiscoverX KINOMEscan (scanMAX 468)

MYLK = biological target: T27, MYLK (Homo sapiens, UniProt Q15746)
T27 construct: purchased Eurofins DiscoverX KINOMEscan (scanMAX 468)

ERK1 = biological target: T28, ERK1 (Homo sapiens, UniProt P27361)
T28 construct: purchased Eurofins DiscoverX KINOMEscan (scanMAX 468)
T28 sequence (P27361 whole entry): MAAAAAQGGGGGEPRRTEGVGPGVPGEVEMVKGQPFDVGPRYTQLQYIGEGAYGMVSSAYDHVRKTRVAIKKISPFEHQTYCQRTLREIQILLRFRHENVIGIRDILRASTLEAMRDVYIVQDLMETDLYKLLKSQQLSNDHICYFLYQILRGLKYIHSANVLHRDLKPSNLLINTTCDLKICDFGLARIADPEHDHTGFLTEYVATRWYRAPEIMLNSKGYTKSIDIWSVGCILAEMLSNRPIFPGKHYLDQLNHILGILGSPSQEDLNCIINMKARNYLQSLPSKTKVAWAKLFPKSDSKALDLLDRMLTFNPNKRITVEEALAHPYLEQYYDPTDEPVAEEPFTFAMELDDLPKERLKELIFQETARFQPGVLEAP

PCTK3 = biological target: T29, PCTK3 (Homo sapiens, UniProt Q07002)
T29 construct: purchased Eurofins DiscoverX KINOMEscan (scanMAX 468)

BRAF(V600E) = biological target: T30, BRAF(V600E) (Homo sapiens, UniProt P15056, V600E)
T30 construct: purchased Eurofins DiscoverX KINOMEscan (scanMAX 468)

SgK110 = biological target: T31, SgK110 (Homo sapiens, UniProt P0C264)
T31 construct: purchased Eurofins DiscoverX KINOMEscan (scanMAX 468)

MARK3 = biological target: T32, MARK3 (Homo sapiens, UniProt P27448)
T32 construct: purchased Eurofins DiscoverX KINOMEscan (scanMAX 468)

CAMK2G = biological target: T33, CAMK2G (Homo sapiens, UniProt Q13555)
T33 construct: purchased Eurofins DiscoverX KINOMEscan (scanMAX 468)

[1] = biological target: T34, ABL1(Q252H)-phosphorylated (Homo sapiens, UniProt P00519, Q252H)
T34 construct: purchased Eurofins DiscoverX KINOMEscan (scanMAX 468)

PIM3 = biological target: T35, PIM3 (Homo sapiens, UniProt Q86V86)
T35 construct: purchased Eurofins DiscoverX KINOMEscan (scanMAX 468)

MAPKAPK2 = biological target: T36, MAPKAPK2 (Homo sapiens, UniProt P49137)
T36 construct: purchased Eurofins DiscoverX KINOMEscan (scanMAX 468)

PIK3C2B = biological target: T37, PIK3C2B (Homo sapiens, UniProt O00750)
T37 construct: purchased Eurofins DiscoverX KINOMEscan (scanMAX 468)

CTK = biological target: T38, CTK (Homo sapiens, UniProt P42679)
T38 construct: purchased Eurofins DiscoverX KINOMEscan (scanMAX 468)
T38 sequence (P42679 whole entry): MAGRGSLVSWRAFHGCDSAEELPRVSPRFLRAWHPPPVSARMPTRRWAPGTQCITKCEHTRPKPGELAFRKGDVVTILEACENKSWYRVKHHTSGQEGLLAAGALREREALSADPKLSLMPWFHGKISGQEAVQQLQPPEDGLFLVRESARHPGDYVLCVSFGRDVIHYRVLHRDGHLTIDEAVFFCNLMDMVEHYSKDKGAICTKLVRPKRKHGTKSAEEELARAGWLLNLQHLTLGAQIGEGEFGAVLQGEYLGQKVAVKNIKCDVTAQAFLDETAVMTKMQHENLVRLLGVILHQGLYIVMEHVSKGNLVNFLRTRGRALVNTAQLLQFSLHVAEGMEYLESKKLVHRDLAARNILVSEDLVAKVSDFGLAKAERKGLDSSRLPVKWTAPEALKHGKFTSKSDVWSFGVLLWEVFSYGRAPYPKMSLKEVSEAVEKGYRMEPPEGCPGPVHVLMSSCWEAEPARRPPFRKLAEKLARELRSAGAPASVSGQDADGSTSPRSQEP

NEK11 = biological target: T39, NEK11 (Homo sapiens, UniProt Q8NG66)
T39 construct: purchased Eurofins DiscoverX KINOMEscan (scanMAX 468)
T39 sequence (Q8NG66 whole entry): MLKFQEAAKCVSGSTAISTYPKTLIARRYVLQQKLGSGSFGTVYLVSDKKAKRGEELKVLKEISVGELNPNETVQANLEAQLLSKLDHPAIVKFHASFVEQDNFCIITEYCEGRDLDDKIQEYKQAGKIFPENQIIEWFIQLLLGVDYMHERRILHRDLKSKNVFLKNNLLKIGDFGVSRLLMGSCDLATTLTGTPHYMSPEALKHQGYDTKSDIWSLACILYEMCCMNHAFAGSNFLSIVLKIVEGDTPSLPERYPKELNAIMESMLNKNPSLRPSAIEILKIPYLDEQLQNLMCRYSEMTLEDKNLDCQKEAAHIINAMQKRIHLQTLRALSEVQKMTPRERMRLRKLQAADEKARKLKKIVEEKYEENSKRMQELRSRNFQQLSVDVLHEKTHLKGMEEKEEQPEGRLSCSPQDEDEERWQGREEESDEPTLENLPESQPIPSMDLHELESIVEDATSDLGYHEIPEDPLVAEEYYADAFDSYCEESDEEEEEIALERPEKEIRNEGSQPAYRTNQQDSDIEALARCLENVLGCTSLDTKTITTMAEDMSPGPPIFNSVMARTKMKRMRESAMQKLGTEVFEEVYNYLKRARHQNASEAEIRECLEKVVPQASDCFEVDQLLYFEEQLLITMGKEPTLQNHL

PRKCH = biological target: T40, PRKCH (Homo sapiens, UniProt P24723)
T40 construct: purchased Eurofins DiscoverX KINOMEscan (scanMAX 468)

ACVRL1 = biological target: T41, ACVRL1 (Homo sapiens, UniProt P37023)
T41 construct: purchased Eurofins DiscoverX KINOMEscan (scanMAX 468)

PIK3CA(E545A) = biological target: T42, PIK3CA(E545A) (Homo sapiens, UniProt P42336, E545A)
T42 construct: purchased Eurofins DiscoverX KINOMEscan (scanMAX 468)
T42 sequence (P42336 whole entry E545A): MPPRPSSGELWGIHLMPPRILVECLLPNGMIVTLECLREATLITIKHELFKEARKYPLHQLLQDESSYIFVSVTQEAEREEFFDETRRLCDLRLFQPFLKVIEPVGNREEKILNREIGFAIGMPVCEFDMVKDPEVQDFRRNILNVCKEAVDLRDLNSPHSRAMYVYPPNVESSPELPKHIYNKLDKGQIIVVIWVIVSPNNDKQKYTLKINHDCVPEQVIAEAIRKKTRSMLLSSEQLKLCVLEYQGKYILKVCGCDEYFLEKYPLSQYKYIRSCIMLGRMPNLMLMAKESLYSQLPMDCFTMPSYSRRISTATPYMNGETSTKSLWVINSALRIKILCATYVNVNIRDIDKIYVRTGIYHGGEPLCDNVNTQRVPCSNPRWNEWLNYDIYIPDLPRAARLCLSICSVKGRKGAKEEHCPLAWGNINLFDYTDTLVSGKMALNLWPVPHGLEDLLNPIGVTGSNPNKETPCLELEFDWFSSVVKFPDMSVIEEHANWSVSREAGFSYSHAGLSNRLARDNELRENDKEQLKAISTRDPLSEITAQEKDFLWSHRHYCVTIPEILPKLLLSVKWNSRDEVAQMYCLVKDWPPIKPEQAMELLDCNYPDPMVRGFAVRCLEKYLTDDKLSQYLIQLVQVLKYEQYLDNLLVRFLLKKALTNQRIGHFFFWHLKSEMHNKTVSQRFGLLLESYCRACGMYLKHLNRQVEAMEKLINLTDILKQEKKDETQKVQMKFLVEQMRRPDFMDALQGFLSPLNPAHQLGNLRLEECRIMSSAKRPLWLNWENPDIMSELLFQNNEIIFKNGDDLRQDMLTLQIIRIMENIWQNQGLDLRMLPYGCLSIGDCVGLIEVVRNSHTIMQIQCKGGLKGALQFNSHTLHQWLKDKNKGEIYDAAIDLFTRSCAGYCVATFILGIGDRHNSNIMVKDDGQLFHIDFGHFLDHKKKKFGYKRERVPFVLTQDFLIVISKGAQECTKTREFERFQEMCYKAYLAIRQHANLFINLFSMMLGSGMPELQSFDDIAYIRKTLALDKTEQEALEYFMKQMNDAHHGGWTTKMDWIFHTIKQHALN

[2] = biological target: T43, ABL1(M351T)-phosphorylated (Homo sapiens, UniProt P00519, M351T)
T43 construct: purchased Eurofins DiscoverX KINOMEscan (scanMAX 468)

PAK4 = biological target: T44, PAK4 (Homo sapiens, UniProt O96013)
T44 construct: purchased Eurofins DiscoverX KINOMEscan (scanMAX 468)

Measured: remaining binding at 1 µM

Cc1ccc(-n2cc(COc3cccc4cnc(Nc5cccc(Cl)c5)nc34)nn2)c([N+](=O)[O-])c1 [DB18]
92%: MYLK
93%: ACVRL1
88%: CDKL1
97%: MAP3K2
85%: SgK110
96%: KIT(V559D,T670I) | BRAF(V600E) | CTK
99%: ALK(C1156Y) | [2]
8.9%: TRKA
57%: ERBB2
62%: PIK3CG
75%: CSNK2A1
100%: all other assays above
